The text below walks through data of patent US8236826B2, “Diarylether derivatives as antitumor agents” (Otsuka Pharmaceutical Co., Ltd., priority 2005, dated 2012).

Counter-ions that a name gives are not always drawn.

As a reminder, the melting point is the temperature of the solid-liquid transition. `Cc1cc(N(C)CC(=O)N2CCN(Cc3ccoc3)CC2)ccc1Oc1ccc(NC(=O)c2ccc(C(F)(F)F)cc2)cn1` (as salt: hydrochloride) [Example 792] returned a melting point of 158.5 to 161 °C.
The result for `Cc1cc(N(C)CC(=O)N2CCN(Cc3ccc4c(c3)OCO4)CC2)ccc1Oc1ccc(NC(=O)c2ccc(Cl)c(Cl)c2)cn1` (as salt: hydrochloride) [Example 1512] reads 183 to 185 °C (dec.).
Consider `O=C(Nc1ccc(Oc2ccc(C3CCN(C(=O)CN4CCOCC4)CC3)cc2)cc1)c1ccc(Cl)c(Cl)c1` (as salt: hydrochloride) [Example 2571], for which the melting point was 146 to 150 °C.
The molecule `CCN(CC(=O)N1CCN(Cc2ccccc2)CC1)c1ccc(Oc2ccc(NC(=O)c3ccc(C(F)(F)F)cc3)cn2)c(C)c1` (as salt: maleate) [Example 1513] had a melting point of 165 to 167 °C.
In turn, `O=C(Nc1ccc(Oc2ccc(C(=O)N3CCOCC3)cc2)cc1)c1ccc(Cl)c(Cl)c1` [Example 10] registered a melting point of 189 to 192 °C.
In turn, `O=C(Nc1ccc(Oc2ccc(C(=O)N3CCOCC3)cc2)c(F)c1)c1ccc(Cl)c(Cl)c1` [Example 11] yielded a melting point of 203 to 204 °C.
`O=C(Nc1ccc(Oc2ccc(C(=O)N3CCN(c4ccccn4)CC3)cc2)nc1)c1ccc(C(F)(F)F)cc1` [Example 176] gave a melting point of 222 to 224 °C.
For the molecule `CC(C)(C)OC(=O)N1CCN(C(=O)CCc2ccc(Oc3ccc(NC(=O)c4ccc(Cl)c(Cl)c4)cc3F)cc2)CC1` [Example 464], the melting point was 155 to 157 °C.
`O=C(Nc1ccc(Oc2ccc(CCC(=O)N3CCN(c4cccnc4)CC3)cc2)cc1)c1ccc(Cl)c(Cl)c1` [Example 466]: the melting point lay within 153 to 155 °C.
The result for `O=C(Nc1ccc(Oc2ccc(CCC(=O)N3CCN(c4cccnc4)CC3)cc2)c(F)c1)c1ccc(Cl)c(Cl)c1` [Example 467] reads 183 to 185 °C; that for `Cc1cc(N(C)CC(=O)N2CCN(Cc3ccoc3)CC2)ccc1Oc1ccc(NC(=O)c2ccc(Cl)c(Cl)c2)cn1` [Example 718], 116.5 to 118 °C; that for `CC(=O)N(CC(=O)N1CCN(Cc2ccc3c(c2)OCO3)CC1)c1ccc(Oc2ccc(NC(=O)c3ccc(Cl)c(Cl)c3)cn2)c(C)c1` [Example 725], 216 to 217 °C.
On to `CCN(CC(=O)N1CCN(Cc2ccc3c(c2)OCO3)CC1)c1ccc(Oc2ccc(NC(=O)c3ccc(Cl)c(Cl)c3)cn2)c(F)c1` [Example 728], for which the melting point was in the range of 149 to 151 °C.
Take `CN(CC(=O)N1CCN(Cc2ccc3c(c2)OCO3)CC1)c1ccc(Oc2ccc(NC(=O)c3ccc(Cl)c(Cl)c3)cn2)c(F)c1` [Example 729]: the melting point was in the range of 199 to 201 °C.
The result for `CC(=O)N(CC(=O)N1CCN(Cc2ccc3c(c2)OCO3)CC1)c1ccc(Oc2ccc(NC(=O)c3ccc(Cl)c(Cl)c3)cn2)c(F)c1` [Example 730] reads 233 to 235 °C.
For `CC(=O)N(CC(=O)N1CCN(Cc2ccccc2)CC1)c1ccc(Oc2ccc(NC(=O)c3ccc(C(F)(F)F)cc3)cn2)cc1` [Example 771] the value was 161 to 162 °C.
`CCN(CC(=O)N1CCN(Cc2ccc3c(c2)OCO3)CC1)c1ccc(Oc2ccc(NC(=O)c3ccc(C(F)(F)F)cc3)cn2)cc1` [Example 774] registered a melting point of 178 to 180 °C.
For `CCN(CC(=O)N1CCN(Cc2ccc3c(c2)OCO3)CC1)c1ccc(Oc2ccc(NC(=O)c3ccc(C(F)(F)F)cc3)cn2)c(F)c1` [Example 775] the value was 170 to 172 °C; for `CN(CC(=O)N1CCN(Cc2ccc3c(c2)OCO3)CC1)c1ccc(Oc2ccc(NC(=O)c3ccc(C(F)(F)F)cc3)cn2)c(F)c1` [Example 776], 220 to 221 °C; for `CCN(CC(=O)N1CCN(Cc2ccoc2)CC1)c1ccc(Oc2ccc(NC(=O)c3ccc(C(F)(F)F)cc3)cn2)c(OC)c1` [Example 784], 174 to 176 °C.
`COc1cc(N(C)CC(=O)N2CCN(Cc3ccoc3)CC2)ccc1Oc1ccc(NC(=O)c2ccc(C(F)(F)F)cc2)cn1` [Example 785] yielded a melting point of 160 to 164 °C.
The result for `Br.CN(CC(=O)N1CCN(Cc2ccc3c(c2)OCO3)CC1)c1cc(F)c(Oc2ccc(C(=O)Nc3ccc(C(F)(F)F)cc3)cn2)cc1F` [Example 1037, 6-(4-{[2-(4-Piperonylpiperazin-1-yl)-2-oxoethyl]methylamino}-2,5-difluorophenoxy)-N-(4-trifluoromethylphenyl)nicotinamide hydrobromide] reads 224.5 to 226 °C; that for `O=C(Nc1ccc(Oc2ccc(N3CCN(Cc4ccccc4)C3=O)cc2)nc1)c1ccc(C(F)(F)F)cc1` [Example 1181], 203 to 204 °C; that for `O=C(Nc1ccc(Oc2ccc(N3CCN(Cc4ccccc4)C3=O)cc2)nc1)c1ccc(Cl)c(Cl)c1` [Example 1182], 186 to 187 °C.
Molecule `Cc1cc(N2CCCN(Cc3ccc4c(c3)OCO4)C2=O)ccc1Oc1ccc(NC(=O)c2ccc(C(F)(F)F)cc2)cn1` [Example 1183] returned a melting point of 165 to 166 °C.
For `Cc1cc(N2CCCN(Cc3ccc4c(c3)OCO4)C2=O)ccc1Oc1ccc(NC(=O)c2ccc(Cl)c(Cl)c2)cn1` [Example 1184] the value was 122 to 124 °C.
The result for `COc1ccc(CN2CCCN(c3ccc(Oc4ccc(NC(=O)c5ccc(C(F)(F)F)cc5)cn4)c(C)c3)C2=O)cc1OC` [Example 1185] reads 155 to 157 °C; that for `Cc1cc(N2CCCN(CC(=O)N3CCN(Cc4ccc5c(c4)OCO5)CC3)C2=O)ccc1Oc1ccc(NC(=O)c2ccc(C(F)(F)F)cc2)cn1` [Example 1186], 182 to 183.5 °C; that for `COc1ccc(CN2CCCN(c3ccc(Oc4ccc(NC(=O)c5ccc(Cl)c(Cl)c5)cn4)c(C)c3)C2=O)cc1OC` [Example 1187], 117 to 118 °C.
The result for `CCOC(=O)c1ccc(N2CCCN(c3ccc(Oc4ccc(NC(=O)c5ccc(C(F)(F)F)cc5)cn4)c(C)c3)C2=O)cc1` [Example 1188] reads 160 to 161 °C; that for `Cc1cc(N2CCN(Cc3ccc4c(c3)OCO4)C2=O)ccc1Oc1ccc(NC(=O)c2ccc(C(F)(F)F)cc2)cn1` [Example 1504, N-{6-[2-methyl-4-(2-oxo-3-piperonylimidazolidin-1-yl)phenoxy]pyridin-3-yl}-4-trifluoromethylbenzamide], 188 to 189 °C.
As for `CCN(CC(=O)N1CCN(Cc2ccccc2)CC1)c1ccc(Oc2ccc(NC(=O)c3ccc(Cl)c(Cl)c3)cn2)c(C)c1` [Example 1514], the melting point lay within 102 to 105 °C.
In the case of `Cc1cc(N(C)CC(=O)N2CCN(Cc3ccccc3)CC2)ccc1Oc1ccc(NC(=O)c2ccc(C(F)(F)F)cc2)cn1` [Example 1515], the melting point was 110 to 111 °C.
`Cc1cc(N(C)CC(=O)N2CCN(Cc3ccccc3)CC2)ccc1Oc1ccc(NC(=O)c2ccc(Cl)c(Cl)c2)cn1` [Example 1516] gave a melting point of 111 to 113 °C.
Regarding `CN(CC(=O)N1CCN(Cc2ccc3c(c2)OCO3)CC1)c1ccc(Oc2ccc(NS(=O)(=O)c3ccc(Cl)c(Cl)c3)cn2)c(F)c1` [Example 1615, 3,4-dichloro-N-[6-(2-fluoro-4-{methyl[2-oxo-2-(4-piperonylpiperazin-1-yl)ethyl]amino}phenoxy)pyridin-3-yl]benzenesulfonamide], the melting point fell in the range of 185.6 to 187 °C.
The result for `O=C(Nc1ccc(Oc2ccc(N3CCN(S(=O)(=O)c4ccccc4)CC3)cc2)cc1)c1ccc(Cl)c(Cl)c1` [Example 2031, N-{4-[4-(4-benzenesulfonylpiperazin-1-yl)phenoxy]phenyl}-3,4-dichlorobenzamide] reads 191 to 192 °C; that for `O=C(Nc1ccc(Oc2ccc(N3CCN(C(=O)COc4ccccc4)CC3)cc2)cc1)c1ccc(Cl)c(Cl)c1` [Example 2052], 171 to 173 °C; that for `O=C(Nc1ccc(Oc2ccc(N3CCN(C(=O)COc4ccc5c(c4)OCO5)CC3)cc2)cc1)c1ccc(Cl)c(Cl)c1` [Example 2053], 116 to 118 °C.
The result for `Cc1cc(N(C)CC(=O)N2CCN(C(=O)c3ccc4c(c3)OCO4)CC2)ccc1Oc1ccc(NC(=O)c2ccc(Cl)c(Cl)c2)cn1` [Example 2054] reads 133 to 135 °C; that for `CC(=O)N(c1ccc(CCC(=O)N2CCN(Cc3ccc4c(c3)OCO4)CC2)cc1)c1ccc(NC(=O)c2ccc(Cl)c(Cl)c2)cn1` [Example 2099, N-[6-(Acetyl{4-[3-oxo-3-(4-piperonylpiperazin-1-yl)propyl]phenyl}amino)pyridin-3-yl]-3,4-dichlorobenzamide], 150 to 165 °C.
As to `O=C(Nc1ccc(Oc2ccc(C3=CCN(CCCn4ccnc4)CC3)cc2)cc1)c1ccc(Cl)c(Cl)c1` [Example 2486, 3,4-Dichloro-N-(4-{4-[1-(3-imidazole-1-ylpropyl)-1,2,3,6-tetrahydropyridine-4-yl]phenoxy}phenyl)-benzamide], the melting point lay in the range of 169 to 171 °C.
As to `O=C(Nc1ccc(Oc2ccc(N3CCN(C(=O)CN4CCOCC4)CC3)cc2)cc1)c1ccc(Cl)c(Cl)c1` [Example 2559], the melting point lay within 177 to 178 °C.
Molecule `O=C(CN1CCOCC1)c1ccc(Oc2ccc(NC(=O)c3ccc(Cl)c(Cl)c3)cc2F)cc1` [Example 2563] gave a melting point of 177 to 178 °C.
The result for `O=C(Nc1ccc(Oc2ccc(C3=CCN(C(=O)CN4CCOCC4)CC3)cc2)cc1)c1ccc(Cl)c(Cl)c1` [Example 2565] reads 195 to 197 °C; that for `CN(C(=O)CN1CCOCC1)C1CCN(c2ccc(Oc3ccc(NC(=O)c4ccc(Cl)c(Cl)c4)cc3)cc2)CC1` [Example 2572], 157 to 160 °C.
The result for `Cc1cc(N2CCC(CC(=O)N3CCN(Cc4ccc5c(c4)OCO5)CC3)CC2)ccc1Oc1ccc(NS(=O)(=O)c2ccc(C(F)(F)F)cc2)cn1` [Example 2703, N-[6-(4-{4-[2-(4-piperonylpiperazin-1-yl)-2-oxoethyl]piperidin-1-yl}-2-methylphenoxy)pyridin-3-yl]-4-trifluoromethylbenzenesulfonamide] reads 156 to 158 °C; that for `O=C(C1CCN(c2ccc(Oc3ccc(NS(=O)(=O)c4ccc(Cl)c(Cl)c4)cn3)cc2)CC1)N1CCN(Cc2ccccc2)CC1` [Example 2710, N-(6-{4-[4-(4-benzylpiperazine-1-carbonyl)piperidin-1-yl]phenoxy}pyridin-3-yl)-3,4-dichlorobenzenesulfonamide], 185 to 189 °C.
